Source: patent publication US20260217765A1, “NOVEL ANTIMICROBIAL PEPTIDE DESIGNED FROM DUCK-DERIVED ANTIMICROBIAL PEPTIDE ANDUSE THEREOF” (INDUSTRY-ACADEMIC COOPERATION FOUNDATION, CHOSUN UNIVERSITY, priority 2023, published 2026)
Values after ≈ are worked out from the molar mass of the structure shown. Peptide text beside a SMILES is read from it.

Key:
[1] = test system: Acinetobacter baumannii_isolate 12 (antibiotic-resistant); assay type: cell-based, Acinetobacter baumannii; settings: isolate 12 (antibiotic-resistant)
Excerpt: (§1) To compare the antimicrobial activity of the peptides prepared in <Example 1>, the minimum inhibitory concentration (MIC), […] measured. Here, the minimal inhibitory concentration (MIC) refers to the lowest concentration of a substance that prevents visible bacterial growth.
(§2) Specifically, the bacterial strains listed in Table 2 below were obtained and cultured in media suitable for each strain until the mid-log phase. The cultures were then diluted to a concentration of 2×10^4 cells/100 μL and prepared in microtiter plates (Nunc, USA). Subsequently, serial 2-fold dilutions of the peptides prepared in Example 1 were prepared, and 10 μL of each dilution was added to the wells, and the plates were incubated at 37° C. for 18 hours. Absorbance at 600 nm was measured using a microtiter plate reader (Merck ELISA reader, Germany) to determine the MIC values for each bacterial strain. The parent peptide dCATH was used as a control.

[2] = test system: Acinetobacter baumannii_isolate 17 (antibiotic-resistant); assay type: cell-based, Acinetobacter baumannii; settings: isolate 17 (antibiotic-resistant)
Excerpt: as §1, §2

[3] = test system: Acinetobacter baumannii_isolate 24 (antibiotic-resistant); assay type: cell-based, Acinetobacter baumannii; settings: isolate 24 (antibiotic-resistant)
Excerpt: as §1, §2

[4] = test system: Acinetobacter baumannii_isolate 9 (antibiotic-resistant); assay type: cell-based, Acinetobacter baumannii; settings: isolate 9 (antibiotic-resistant)
Excerpt: as §1, §2

[5] = test system: Acinetobacter baumannii_isolate21 (antibiotic-resistant); assay type: cell-based, Acinetobacter baumannii; settings: isolate21 (antibiotic-resistant)
Excerpt: as §1, §2

[6] = test system: Acinetobacter baumannii_isolate 13 (antibiotic-resistant); assay type: cell-based, Acinetobacter baumannii; settings: isolate 13 (antibiotic-resistant)
Excerpt: as §1, §2

[7] = test system: Acinetobacter baumannii_isolate 2 (antibiotic-resistant); assay type: cell-based, Acinetobacter baumannii; settings: isolate 2 (antibiotic-resistant)
Excerpt: as §1, §2

[8] = test system: Acinetobacter baumannii_isolate 3 (antibiotic-resistant); assay type: cell-based, Acinetobacter baumannii; settings: isolate 3 (antibiotic-resistant)
Excerpt: as §1, §2

[9] = test system: Acinetobacter baumannii_isolate15 (antibiotic-resistant); assay type: cell-based, Acinetobacter baumannii; settings: isolate15 (antibiotic-resistant)
Excerpt: as §1, §2

[10] = test system: Acinetobacter baumannii_isolate 6 (antibiotic-resistant); assay type: cell-based, Acinetobacter baumannii; settings: isolate 6 (antibiotic-resistant)
Excerpt: as §1, §2

[11] = test system: Acinetobacter baumannii_isolate 7 (antibiotic-resistant); assay type: cell-based, Acinetobacter baumannii; settings: isolate 7 (antibiotic-resistant)
Excerpt: as §1, §2

[12] = test system: Acinetobacter baumannii_isolate 5 (antibiotic-resistant); assay type: cell-based, Acinetobacter baumannii; settings: isolate 5 (antibiotic-resistant)
Excerpt: as §1, §2

[13] = test system: Acinetobacter baumannii_isolate 14 (antibiotic-resistant); assay type: cell-based, Acinetobacter baumannii; settings: isolate 14 (antibiotic-resistant)
Excerpt: as §1, §2

[14] = test system: Acinetobacter baumannii_isolate 18 (antibiotic-resistant); assay type: cell-based, Acinetobacter baumannii; settings: isolate 18 (antibiotic-resistant)
Excerpt: as §1, §2

[15] = test system: Acinetobacter baumannii KCTC 2508; assay type: cell-based; settings: KCTC 2508, 24 h
Protocol: Specifically, among the bacterial strains listed in Table 2, those known to form biofilms well (Acinetobacter baumannii KCTC 2508, Acinetobacter baumannii isolate 10, and isolate 14) were cultured in the appropriate media to the mid-log phase and diluted to a cell concentration of 5×10^4 cells/100 µL, followed by inoculation into microplates (SPL). Subsequently, the peptides prepared in <Example 1> were serially 10-fold diluted with 10 mM sodium phosphate buffer (pH 7.2), and 10 μL of each dilution was added to each well. The plates were then incubated at 37° C. for 24 hours. After completely removing the supernatant, the plates were fixed with 100% methanol for 15 minutes, stained with crystal violet staining solution for 1 hour, washed three times, and then the stain was solubilized with 95% ethanol. Absorbance was measured at 595 nm using a microplate reader to determine the MBIC values for each bacterial strain.

[16] = test system: Bacillus cereus KCTC 2508; assay type: cell-based
Excerpt: as §1, §2

[17] = test system: Staphylococcus aureus ATCC 25923; assay type: cell-based; settings: ATCC 25923
Excerpt: as §1, §2

[18] = test system: Escherichia coli ATCC 25922; assay type: cell-based
Excerpt: as §1, §2

[19] = test system: Pseudomonas aeruginosa ATCC 27853; assay type: cell-based
Excerpt: as §1, §2

[20] = test system: Acinetobacter baumannii KCTC 1017; assay type: cell-based; settings: KCTC 1017
Excerpt: as §1, §2

[21] = test system: Listeria monocytogenes KCTC 3710; assay type: cell-based
Excerpt: as §1, §2

[22] = in vitro; assay type: cell-based; settings: human, HaCaT keratinocyte cells, Cell Viability
Protocol: To evaluate the cytotoxicity of the peptides prepared in <Example 1>, toxicity was measured using a human keratinocyte cell line (HaCaT cell line, Dr. N. E. Fusenig, Heidelberg, Germany).
Specifically, HaCaT cells cultured in DMEM medium containing 10% fetal bovine serum (FBS) were seeded at a density of 2×10^5 cells/well into a microtiter plate and incubated for 24 hours. Then, peptides dCATH, dCATH-A1, dCATH-A2, dCATH-A3, dCATH-A4, dCATH-A5, dCATH-A6, and dCATH-A7 were added to each well at concentrations of 3.13, 6.25, 12.5, 25.0, 50.0, and 100.0 μM/well, followed by incubation for 24 hours in a 5% CO2 incubator. After 24 hours, 100 μL of a reaction solution containing 0.5 mg/mL MTT (Thiazolyl Blue Tetrazolium Bromide) dissolved in phosphate-buffered saline (PBS) was added to each well and reacted for 4 hours. After removing the supernatant, 200 μL of DMSO (dimethyl sulfoxide) was added to dissolve the formed MTT crystals, and absorbance at 570 nm was measured to determine cell viability.

CC[C@H](C)[C@H](NC(=O)[C@H](C)NC(=O)[C@H](CC(C)C)NC(=O)[C@@H]1CCCN1C(=O)[C@@H](NC(=O)[C@H](CC(C)C)NC(=O)[C@H](CCC(N)=O)NC(=O)[C@H](C)NC(=O)[C@H](Cc1ccccc1)NC(=O)[C@H](CCCNC(=N)N)NC(=O)[C@@H](N)CCCCN)C(C)C)C(=O)N[C@@H](CCCCN)C(=O)N[C@H](C(=O)N[C@@H](Cc1ccc(O)cc1)C(=O)N[C@@H](CCCNC(=N)N)C(=O)N[C@@H](C)C(=O)N[C@@H](Cc1c[nH]c2ccccc12)C(=O)N[C@@H](CCCCN)C(=O)N[C@@H](CCCNC(=N)N)C(=O)N[C@@H](CCCNC(=N)N)C(N)=O)[C@@H](C)CC [dCATH-A2] (H-KRFAQLVPLAIKIYRAWKRR-NH2; N-terminus assumed)
MIC [1]: 1 µM (≈ 2.51 µg/mL)
MIC [2]: 1 µM (≈ 2.51 µg/mL)
MIC [3]: 1 µM (≈ 2.51 µg/mL)
MIC [4]: 2 µM (≈ 5.03 µg/mL)
MIC [5]: 1 µM (≈ 2.51 µg/mL)
MIC [6]: 1 µM (≈ 2.51 µg/mL)
MIC [7]: 1 µM (≈ 2.51 µg/mL)
MIC [8]: 1 µM (≈ 2.51 µg/mL)
MIC [9]: 1 µM (≈ 2.51 µg/mL)
MIC [10]: 2 µM (≈ 5.03 µg/mL)
MIC [11]: 1 µM (≈ 2.51 µg/mL)
MIC [12]: 1 µM (≈ 2.51 µg/mL)
MIC [13]: 1 µM (≈ 2.51 µg/mL)
MIC [14]: 1 µM (≈ 2.51 µg/mL)
MBIC [15]: 4 µM
MIC [16]: 1 µM (≈ 2.51 µg/mL)
MIC [17]: 1 µM (≈ 2.51 µg/mL)
MIC [18]: 2 µM (≈ 5.03 µg/mL)
MIC [19]: 2 µM (≈ 5.03 µg/mL)
MIC [20]: 1 µM (≈ 2.51 µg/mL)
MIC [21]: 2 µM (≈ 5.03 µg/mL)
viability at 24 h, 3.13 µM [22]: 100%
viability at 24 h, 6.25 µM [22]: 100%
viability at 24 h, 12.5 µM [22]: 89%
viability at 24 h, 25 µM [22]: 30.7%
viability at 24 h, 50 µM [22]: 2.99%
viability at 24 h, 100 µM [22]: 2.16%

CC[C@H](C)[C@H](NC(=O)[C@H](C)NC(=O)[C@H](CC(C)C)NC(=O)[C@@H]1CCCN1C(=O)[C@@H](NC(=O)[C@H](CC(C)C)NC(=O)[C@H](CCC(N)=O)NC(=O)[C@H](C)NC(=O)[C@H](C)NC(=O)[C@H](CCCNC(=N)N)NC(=O)[C@@H](N)CCCCN)C(C)C)C(=O)N[C@@H](CCCCN)C(=O)N[C@H](C(=O)N[C@@H](Cc1ccc(O)cc1)C(=O)N[C@@H](CCCNC(=N)N)C(=O)N[C@@H](C)C(=O)N[C@@H](Cc1c[nH]c2ccccc12)C(=O)N[C@@H](CCCCN)C(=O)N[C@@H](CCCNC(=N)N)C(=O)N[C@@H](CCCNC(=N)N)C(N)=O)[C@@H](C)CC [dCATH-A3] (H-KRAAQLVPLAIKIYRAWKRR-NH2; N-terminus assumed)
MIC [1]: 1 µM (≈ 2.44 µg/mL)
MIC [2]: 1 µM (≈ 2.44 µg/mL)
MIC [3]: 1 µM (≈ 2.44 µg/mL)
MIC [4]: 1 µM (≈ 2.44 µg/mL)
MIC [5]: 4 µM (≈ 9.75 µg/mL)
MIC [6]: 1 µM (≈ 2.44 µg/mL)
MIC [7]: 1 µM (≈ 2.44 µg/mL)
MIC [8]: 1 µM (≈ 2.44 µg/mL)
MIC [9]: 2 µM (≈ 4.87 µg/mL)
MIC [10]: 2 µM (≈ 4.87 µg/mL)
MIC [11]: 1 µM (≈ 2.44 µg/mL)
MIC [12]: 1 µM (≈ 2.44 µg/mL)
MIC [13]: 2 µM (≈ 4.87 µg/mL)
MIC [14]: 1 µM (≈ 2.44 µg/mL)
MBIC [15]: 2 µM
MIC [16]: 2 µM (≈ 4.87 µg/mL)
MIC [17]: 2 µM (≈ 4.87 µg/mL)
MIC [18]: 2 µM (≈ 4.87 µg/mL)
MIC [19]: 2 µM (≈ 4.87 µg/mL)
MIC [20]: 1 µM (≈ 2.44 µg/mL)
MIC [21]: 2 µM (≈ 4.87 µg/mL)
viability at 24 h, 3.13 µM [22]: 92%
viability at 24 h, 6.25 µM [22]: 91.9%
viability at 24 h, 12.5 µM [22]: 97.9%
viability at 24 h, 25 µM [22]: 56.6%
viability at 24 h, 50 µM [22]: 5.47%
viability at 24 h, 100 µM [22]: 1.59%
